Experimental data published in PubChem BioAssay (NCI).
“And” between values parts separate entries of the source, which are not always exact repeats. Equal values may be shown once.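 Cells were grown in 96-well plates and exposed to each compound for 48 hours at five concentrations; endpoints were interpolated linearly between bracketing concentrations, or set to the highest concentration if not reached. GI50 = concentration required for 50% inhibition of growth. TGI: concentration producing complete growth inhibition.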

Columns and labels:
Assay in all cases: growth of human tumour cells (NCI), 48 h
[1] = system: U251 CNS
[2] = system: HCT-116 colon
[3] = system: SF-539 CNS
[4] = system: HCC-2998 colon
[5] = system: NCI-H460 lung
[6] = system: SW-620 colon
[7] = system: SF-295 CNS
[8] = system: HL-60(TB) leukemia
[9] = system: TK-10 renal
[10] = system: OVCAR-5 ovarian

COc1cc2c(cc1OC)C(CCc1ccc(Cl)cc1)N(C)CC2 (stereo not given)
GI50 [1]: 22.8 µM | TGI [1]: 64.3 µM | GI50 [2]: 13.8 µM | TGI [2]: 52.9 µM | GI50 [3]: 17.1 µM | TGI [3]: 39 µM | GI50 [4]: 16.4 µM | TGI [4]: 31.1 µM | GI50 [5]: 17.8 µM | TGI [5]: 40.2 µM | GI50 [6]: 19.3 µM | TGI [6]: 45.4 µM | GI50 [7]: 9.32 µM | TGI [7]: 27 µM | GI50 [8]: 17.2 µM | TGI [8]: 44.3 µM | GI50 [9]: 17 µM | TGI [9]: 42.2 µM | GI50 [10]: 19.6 µM | TGI [10]: 61.7 µM

O=C1Cc2cc(CCn3ccnc3)c(Cl)cc2N1
GI50 [1]: 8.24 µM | TGI [1]: > 100 µM | GI50 [2]: 13.1 µM | TGI [2]: > 100 µM | GI50 [3]: 60 µM | TGI [3]: > 100 µM | GI50 [4]: 32.2 µM | TGI [4]: > 100 µM | GI50 [5]: 16.1 µM | TGI [5]: > 100 µM | GI50 [6]: 5.02 µM | TGI [6]: > 100 µM | GI50 [7]: 7.87 µM | TGI [7]: > 100 µM | GI50 [8]: 63.2 µM | TGI [8]: > 100 µM | GI50 [9]: > 100 µM | TGI [9]: > 100 µM | GI50 [10]: 44.8 µM | TGI [10]: > 100 µM

CCOc1ccc(Cc2nccc3cc(OCC)c(OCC)cc23)cc1OCC
GI50 [1]: 7.73 µM | TGI [1]: 21.9 µM | GI50 [2]: 1.52 µM | TGI [2]: 13.4 µM | GI50 [3]: 5.87 µM | TGI [3]: 20.7 µM | GI50 [4]: 5.53 µM | TGI [4]: 21.3 µM | GI50 [5]: 3.2 µM | TGI [5]: 21.8 µM | GI50 [6]: 3.68 µM | TGI [6]: 24.1 µM | GI50 [7]: 0.688 µM | TGI [7]: 15.8 µM | GI50 [8]: 3.17 µM | TGI [8]: 18.2 µM | GI50 [9]: 11 µM | TGI [9]: 32.5 µM | GI50 [10]: 4.58 µM | TGI [10]: 22 µM

Oc1nc(NCCc2ccccc2)sc1/C=C1\C=Nc2ncccc21
GI50 [1]: 2.29 µM and 3.26 µM | TGI [1]: 7.89 µM and 11.5 µM | GI50 [2]: 1.03 µM and 1.23 µM | TGI [2]: 11.1 µM and 6.5 µM | GI50 [3]: 1.32 µM and 1.47 µM | TGI [3]: 3.82 µM and 3.65 µM | GI50 [4]: 3.6 µM and 6.06 µM | TGI [4]: 13.2 µM and 24.3 µM | GI50 [5]: 3.01 µM and 3.16 µM | TGI [5]: 10.2 µM and 13.6 µM | GI50 [6]: 1.92 µM and 2.37 µM | TGI [6]: 8.09 µM and 11.9 µM | GI50 [7]: 3.32 µM and 3.14 µM | TGI [7]: 13.2 µM and 23.6 µM | GI50 [8]: 2.34 µM and 2.14 µM | TGI [8]: 6.48 µM and 6.88 µM | GI50 [9]: 3.59 µM and 3.04 µM | TGI [9]: 15.5 µM and 17.7 µM | GI50 [10]: 2.94 µM and 2.93 µM | TGI [10]: 27.8 µM and 16.9 µM

O=C(CC(=O)N1N=C(n2ccc3ccccc32)CC1c1ccccc1)Nc1cccc(Cl)c1 (stereo not given)
TGI [1]: > 100 µM | TGI [2]: > 100 µM | TGI [3]: > 100 µM | TGI [4]: > 100 µM | TGI [5]: > 100 µM | TGI [6]: > 100 µM | TGI [7]: > 100 µM | TGI [8]: > 100 µM | TGI [9]: > 100 µM | TGI [10]: > 100 µM

CCCNc1nc(N(C)O)nc(N(C)O)n1
GI50 [1]: 0.955 µM | TGI [1]: > 100 µM | GI50 [2]: 1.63 µM | TGI [2]: > 53.8 µM | GI50 [3]: 2.51 µM | TGI [3]: > 54.4 µM | GI50 [4]: 3.04 µM | TGI [4]: > 100 µM | GI50 [5]: 0.563 µM | TGI [5]: > 56.8 µM | GI50 [6]: 3.46 µM | TGI [6]: > 100 µM | GI50 [7]: 2.36 µM | TGI [7]: > 56.2 µM | GI50 [8]: 0.59 µM | TGI [8]: 4.56 µM | GI50 [9]: 1.44 µM | TGI [9]: > 100 µM | GI50 [10]: 6.09 µM | TGI [10]: > 100 µM
